Reference: ChEMBL document CHEMBL1138634, “Topological modeling of lipophilicity, diuretic activity, and carbonic inhibition activity of benzene sulfonamides: a molecular connectivity approach” (Bioorg Med Chem Lett, 2004)

How the values were obtained:
[1] = Inhibitory activity against carbonic anhydrase
[2] = Diuretic activity was determined; type: ADME, Urine

Compound	Log Ki [1]	Log 1/C [2]
CC(=O)c1ccc(S(N)(=O)=O)cc1	-5.95	0.39
Cc1cccc(S(N)(=O)=O)c1	-5.3	0.17
CNc1ccc(S(N)(=O)=O)cc1	-4.87	-0.03
COc1ccc(S(N)(=O)=O)cc1	-5.34	–
Cc1ccccc1S(N)(=O)=O	-4.79	-0.3
N#Cc1ccc(S(N)(=O)=O)cc1	-5.95	1
NS(=O)(=O)c1ccc(Br)cc1	-5.92	0.26
NS(=O)(=O)c1ccc([N+](=O)[O-])c(C(F)(F)F)c1	-6.85	0.57
NS(=O)(=O)c1ccccc1[N+](=O)[O-]	-5.07	-0.3
NS(=O)(=O)c1ccc(Cl)c(Cl)c1	-6.39	0.24
NS(=O)(=O)c1cccc([N+](=O)[O-])c1	-5.88	0.67
NS(=O)(=O)c1ccccc1Cl	-5.52	-0.3
NS(=O)(=O)c1cccc(Cl)c1	-5.63	0.29
NS(=O)(=O)c1ccc(Cl)c([N+](=O)[O-])c1	-6.76	0.32
NS(=O)(=O)c1ccccc1 [BENZENESULFONAMIDE]	-5.21	0.13
NS(=O)(=O)c1ccc(Cl)cc1 [P-CHLOROBENZENESULFONAMIDE]	-5.72	–
Cc1ccc(S(N)(=O)=O)cc1 [P-TOLUENESULFONAMIDE]	-5.42	0.18
Nc1ccc(S(N)(=O)=O)cc1 [SULFANILAMIDE]	–	-0.3
